# In ChEMBL document CHEMBL5370535, “Thiazolyl hydrazineylidenyl indolones as unique potential multitargeting broad-spectrum antimicrobial agents” (Eur J Med Chem, 2023):
# Tests used:
# Format in all cases: functional
# [1] = tested on: Staphylococcus aureus; experiment: Antibacterial activity against methicillin-resistant Staphylococcus aureus assessed as bacterial growth inhibition incubated for 24 hrs by CLSI based two serial dilution assay
# [2] = tested on: Enterococcus faecalis; experiment: Antibacterial activity against Enterococcus faecalis assessed as bacterial growth inhibition incubated for 24 hrs by CLSI based two serial dilution assay
# [3] = tested on: Staphylococcus aureus; experiment: Antibacterial activity against Staphylococcus aureus assessed as bacterial growth inhibition incubated for 24 hrs by CLSI based two serial dilution assay
# [4] = tested on: Staphylococcus aureus; experiment: Antibacterial activity against Staphylococcus aureus 25923 assessed as bacterial growth inhibition incubated for 24 hrs by CLSI based two serial dilution assay
# [5] = tested on: Staphylococcus aureus; experiment: Antibacterial activity against Staphylococcus aureus 29213 assessed as bacterial growth inhibition incubated for 24 hrs by CLSI based two serial dilution assay
# [6] = tested on: Klebsiella pneumoniae; experiment: Antibacterial activity against Klebsiella pneumoniae assessed as bacterial growth inhibition incubated for 24 hrs by CLSI based two serial dilution assay
# [7] = tested on: Escherichia coli; experiment: Antibacterial activity against Escherichia coli assessed as bacterial growth inhibition incubated for 24 hrs by CLSI based two serial dilution assay
# [8] = tested on: Escherichia coli; experiment: Antibacterial activity against Escherichia coli 25922 assessed as bacterial growth inhibition incubated for 24 hrs by CLSI based two serial dilution assay
# [9] = tested on: Pseudomonas aeruginosa; experiment: Antibacterial activity against Pseudomonas aeruginosa assessed as bacterial growth inhibition incubated for 24 hrs by CLSI based two serial dilution assay
# [10] = tested on: Pseudomonas aeruginosa; experiment: Antibacterial activity against Pseudomonas aeruginosa ATCC 27853 assessed as bacterial growth inhibition incubated for 24 hrs by CLSI based two serial dilution assay
# [11] = tested on: Acinetobacter baumannii; experiment: Antibacterial activity against Acinetobacter baumannii assessed as bacterial growth inhibition incubated for 24 hrs by CLSI based two serial dilution assay
# [12] = tested on: Candida albicans; experiment: Antifungal activity against Candida albicans assessed as inhibition of fungal growth incubated for 24 hrs by CLSI based two serial dilution assay
# [13] = tested on: Candida albicans; experiment: Antifungal activity against Candida albicans ATCC 90023 assessed as inhibition of fungal growth incubated for 24 hrs by CLSI based two serial dilution assay
# [14] = tested on: Candida tropicalis; experiment: Antifungal activity against Candida tropicalis assessed as inhibition of fungal growth incubated for 24 hrs by CLSI based two serial dilution assay
# [15] = tested on: Candida parapsilosis; experiment: Antifungal activity against Candida parapsilosis ATCC 22019 assessed as inhibition of fungal growth incubated for 24 hrs by CLSI based two serial dilution assay; settings: Lodderomyces parapsilosis
# [16] = tested on: Aspergillus fumigatus; experiment: Antifungal activity against Aspergillus fumigatus assessed as inhibition of fungal growth incubated for 24 hrs by CLSI based two serial dilution assay
Structure (SMILES),MIC [1] [µM],MIC [2] [µM],MIC [3] [µM],MIC [4] [µM],MIC [5] [µM],MIC [6] [µM],MIC [7] [µM],MIC [8] [µM],MIC [9] [µM],MIC [10] [µM],MIC [11] [µM],MIC [12] [µM],MIC [13] [µM],MIC [14] [µM],MIC [15] [µM],MIC [16] [µM]
CCCCN1C(=O)/C(=N\Nc2nc(C)c(C(=O)OCC)s2)c2ccccc21,128,256,64,512,64,256,256,128,1,256,128,512,512,128,256,128
C#CCN1C(=O)/C(=N\Nc2nccs2)c2ccccc21,256,256,256,512,512,512,512,512,256,512,512,256,256,256,64,64
OC(Cn1cncn1)(Cn1cncn1)c1ccc(F)cc1F [FLUCONAZOLE],,,,,,,,,,,,4,2,8,4,256
O=C1/C(=N\Nc2nccs2)c2ccccc2N1Cc1ccc(Cl)cc1Cl,128,64,4,4,2,128,64,128,64,64,64,32,16,64,32,16
CCCCN1C(=O)/C(=N\Nc2nccs2)c2c(Cl)cccc21,256,128,512,512,1,1,256,512,1,128,256,256,512,128,16,256
CCCCN1C(=O)/C(=N\Nc2nccs2)c2cc([N+](=O)[O-])ccc21,512,512,512,512,512,512,512,512,512,512,0.5,512,512,512,512,512
CCCCN1C(=O)/C(=N\Nc2nccs2)c2cccc(Cl)c21,0.5,1,64,0.5,64,0.5,1,0.5,1,0.5,0.5,0.5,1,4,32,128
O=C1Nc2ccccc2/C1=N/Nc1nccs1,128,128,512,128,128,512,256,128,512,128,64,256,128,256,64,32
